{"source": "patent US20230059869A1", "about": "“ORAL PHARMACEUTICAL SOLUTION OF CLOPIDOGREL” (LIQMEDS WORLDWIDE LIMITED, priority 2021, published 2023)", "origin": "cited, not measured here", "key": {"[1]": {"conditions": "at high doses; see Reist; Badorc"}, "[2]": {"conditions": "see Reist; Badorc"}}, "data": [{"smiles": "COC(=O)[C@@H](c1ccccc1Cl)N1CCc2sccc2C1", "note": "[Impurity C, (R)-Methyl (2-chlorophenyl)(6,7-dihydro-4H-thieno[3,2-c]pyridin-5-yl)acetate]", "values": [{"measurement": "convulsions", "setting": "[1]", "result": "can evoke convulsions at high doses"}, {"measurement": "antithrombotic activity", "setting": "[2]", "result": "devoid of antithrombotic activity"}]}]}
